{
  "source": "patent US20060240494A1",
  "about": "“Biocidal molecules, macromolecular targets and methods of production and use” (priority 2000, published 2006)",
  "key": {"Ras": {"test_system": "Ras", "assay": "Fluorescence polarization binding of fluorescein-labeled peptides to Ras (negative control protein)", "conditions": "Ras at both concentrations (4 μM and 2 μM); peptide 1 nM; blank about 62", "source_text": "(§1) All solid-phase assays that separate the bound form of the ligand from the free form are suspect. Therefore, in the next step, the binding of labeled peptides to the heat shock/chaperone proteins and to LPS was observed by fluorescence polarization.\n(§2) In one example, three fluorescein-labeled peptides were synthesized with the fluorescein label attached at the N-terminus of the peptide: fluorescein-K-pyrrhocoricin (N-F-pyrrhocoricin), fluorescein-K-drosocin (unglycosylated; N-F-drosocin), and fluorescein-K-apidaecin (N-F-apidaecin). A C-terminally labeled peptide was also made, i.e., pyrrhocoricin-K-fluorescein (C-F-pyrrhocoricin). The C-terminally labeled pyrrhocoricin peptide (C-F-pyrrhocoricin) was made to investigate the possibility of spatial separation of the active sites. From earlier experiments, it was clear that pyrrhocoricin and drosocin bind to the receptor(s) with their two terminal domains [Hoffmann, R. et al, (1999) Biochim. Biophys. Acta, 1426: 459-467; McManus, A. et al, (1999) Biochemistry, 38: 705-714].\n(§3) During fluorescence polarization, positive signals are detected only when the free rotation of the fluorescein attached to one of the interacting partners is slowed down due to binding to the other partner when this label is not exceedingly far from the site of interaction. […]"}, "[1]": {"target": "E. coli DnaK fragment aa583-615 (D-E helix hinge) (Escherichia coli, UniProt P0A6Y8)", "sequence (P0A6Y8 584-616)": "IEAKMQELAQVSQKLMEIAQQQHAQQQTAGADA", "assay": "Fluorescence polarization with synthetic DnaK fragment aa583-615", "assay_type": "binding", "conditions": "Tris HCl at pH 8.0; labeled peptide 1 nM", "protocol": "The binding of the synthetic DnaK fragments to their fluorescein-labeled pyrrhocoricin counterparts was also assessed in solution, by fluorescence polarization [Lundblad, J. R. et al, (1996) Mol. Endocrinol. 10: 607-612]. For these experiments, the unlabeled peptides were serially diluted in PBS (pH 7.4) or 0.1 M Tris-HCl (pH 8.0) containing 0.1 M ethylene-diamine-tetraacetic acid (EDTA) in 50 μL final volume in 6×50 mm disposable glass borosilicate tubes. The fluoresceinated peptides were added to each tube in a 50 μL aliquot to a final concentration of 1 nM and tubes were incubated at 37° C. for 5 minutes. The extent of fluorescence anisotropy was measured on a Beacon 2000 fluorescence polarization instrument (PanVera, Madison, Wis.) and calculated as millipolarization values. The filters used were 485 nm excitation and 535 nm emission with 3 nm band width. Non-linear curve fitting was done by using a dose-response logistical transition [y=a0+a1/(1+x/a2)^a^3] and the Levenberg-Marquardt Algorithm within the SlideWrite software package. The provided Kd value (a2 coefficient) was calculated by the program.\nTo quantitatively characterize the pyrrhocoricin—D-E helix interaction, the complete binding curves were measured for E. coli DnaK fragments aa583-615 and aa588-615, both of SEQ ID NO: 10."}, "DnaK": {"target": "DnaK (Escherichia coli, UniProt P0A6Y8)", "sequence (P0A6Y8 whole entry)": "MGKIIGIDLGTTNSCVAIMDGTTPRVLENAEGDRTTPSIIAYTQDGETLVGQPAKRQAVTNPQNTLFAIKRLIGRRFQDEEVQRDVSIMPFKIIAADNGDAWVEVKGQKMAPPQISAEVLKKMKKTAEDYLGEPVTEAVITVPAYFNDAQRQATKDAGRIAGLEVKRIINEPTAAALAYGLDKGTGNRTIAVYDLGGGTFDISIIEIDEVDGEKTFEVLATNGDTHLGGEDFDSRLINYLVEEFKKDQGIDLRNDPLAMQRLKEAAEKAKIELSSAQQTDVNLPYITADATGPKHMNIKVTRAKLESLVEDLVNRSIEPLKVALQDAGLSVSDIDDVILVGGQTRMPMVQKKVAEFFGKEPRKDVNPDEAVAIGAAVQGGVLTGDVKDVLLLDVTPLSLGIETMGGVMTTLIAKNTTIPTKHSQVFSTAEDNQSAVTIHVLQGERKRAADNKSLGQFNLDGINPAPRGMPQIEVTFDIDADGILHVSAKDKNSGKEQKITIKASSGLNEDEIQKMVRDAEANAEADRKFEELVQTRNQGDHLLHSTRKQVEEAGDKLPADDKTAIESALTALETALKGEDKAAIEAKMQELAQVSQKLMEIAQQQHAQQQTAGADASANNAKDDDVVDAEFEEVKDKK", "assay": "Fluorescence polarization binding of fluorescein-labeled peptides to DnaK", "set-up": "purchased; host or cells: E. coli; species or system E. coli", "conditions": "for minipolarization value: peptide 1 nM, blank about 62", "source_text": "(§4) All solid-phase assays that separate the bound form of the ligand from the free form are suspect.\n(§5) In one example, three fluorescein-labeled peptides were synthesized with the fluorescein label attached at the N-terminus of the peptide: fluorescein-K-pyrrhocoricin (N-F-pyrrhocoricin), fluorescein-K-drosocin (unglycosylated; N-F-drosocin), and fluorescein-K-apidaecin (N-F-apidaecin). […] Biophys. Acta, 1426: 459-467; McManus, A. et al, (1999) Biochemistry, 38: 705-714].\n(§6) During fluorescence polarization, positive signals are detected only when the free rotation of the fluorescein attached to one of the interacting partners is slowed down due to binding to the other partner when this label is not exceedingly far from the site of interaction. If the label is placed too far from the binding site, the flexibility of peptide-like structures will resume free rotation of the fluorescein moiety, resulting in no polarization anisotropy, even if positive binding occurs. As a negative control fluorescein-labeled peptide, a fragment of the […] of human tubulin was used [Otvos, L., Jr. et al, (1998) Protein and Peptide Lett., 5: 207-213].\nThe same heat shock proteins and LPS preparations were used as in the Western-blotting, except DnaJ was not studied. Ras was used as a negative control protein. The fluorescein-K-pyrrhocoricin—DnaK binding study was repeated with an additional DnaK preparation, purchased from another source. The labeled peptides were used in fixed 1 nM concentrations. […] The initial concentration of LPS was set to 0.5 mg/ml, and dilutions were made until 0.031 mg/ml."}, "Hsp60": {"target": "T1, Hsp60 (Homo sapiens, UniProt P10809)", "T1 construct": "purchased; host or cells: E. coli", "T1 sequence (P10809 27-573)": "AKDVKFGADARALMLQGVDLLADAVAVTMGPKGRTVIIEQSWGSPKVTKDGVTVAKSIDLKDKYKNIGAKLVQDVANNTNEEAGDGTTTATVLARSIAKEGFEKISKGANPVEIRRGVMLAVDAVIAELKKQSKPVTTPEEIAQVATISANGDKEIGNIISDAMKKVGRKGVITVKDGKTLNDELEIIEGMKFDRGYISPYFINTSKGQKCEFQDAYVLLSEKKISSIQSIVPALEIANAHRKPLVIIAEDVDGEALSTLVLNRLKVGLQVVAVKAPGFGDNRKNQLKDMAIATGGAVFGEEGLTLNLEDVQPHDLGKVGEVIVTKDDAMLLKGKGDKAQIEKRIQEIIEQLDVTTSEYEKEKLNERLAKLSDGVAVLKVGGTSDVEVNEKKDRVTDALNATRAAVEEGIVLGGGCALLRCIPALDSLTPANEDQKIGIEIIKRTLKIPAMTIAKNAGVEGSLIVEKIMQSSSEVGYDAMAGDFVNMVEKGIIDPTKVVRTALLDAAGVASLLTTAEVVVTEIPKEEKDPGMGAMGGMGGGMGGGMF", "assay": "Fluorescence polarization binding of fluorescein-labeled peptides to Hsp60", "conditions": "peptide 1 nM, blank about 62", "source_text": "as §1, §2, §3"}, "[2]": {"target": "E. coli DnaK fragment aa397-439 (conventional peptide binding pocket) (Escherichia coli, UniProt P0A6Y8)", "sequence (P0A6Y8 397-439)": "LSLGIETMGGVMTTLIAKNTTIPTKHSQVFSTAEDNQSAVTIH", "assay": "Fluorescence polarization with DnaK fragment aa397-439", "conditions": "PBS; qualitative"}, "GroES": {"target": "T2, GroES (Escherichia coli, UniProt P0A6F9)", "T2 construct": "purchased; host or cells: E. coli", "T2 sequence (P0A6F9 whole entry)": "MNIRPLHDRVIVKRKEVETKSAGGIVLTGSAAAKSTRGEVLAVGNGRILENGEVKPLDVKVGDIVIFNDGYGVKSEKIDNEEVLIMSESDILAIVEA", "assay": "Fluorescence polarization binding of fluorescein-labeled peptides to GroES", "conditions": "GroES at both concentrations (4 μM and 2 μM); peptide 1 nM; blank about 62", "source_text": "as §1, §2, §3"}, "[3]": {"target": "E. coli DnaK aa513-551 (A-B helix fragment) (Escherichia coli, UniProt P0A6Y8)", "sequence (P0A6Y8 514-552 limits assumed)": "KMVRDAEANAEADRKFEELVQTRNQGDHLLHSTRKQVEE", "assay": "Fluorescence polarization with DnaK A-B helix fragment", "assay_type": "binding"}, "E. coli DnaK aa596-637": {"target": "E. coli DnaK aa596-637 (Escherichia coli, UniProt P0A6Y8)", "sequence (P0A6Y8 597-638)": "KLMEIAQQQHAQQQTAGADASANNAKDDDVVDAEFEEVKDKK", "assay": "Fluorescence polarization with DnaK extreme C-terminus fragment", "assay_type": "binding", "conditions": "PBS; qualitative"}, "GroEL": {"target": "GroEL (Escherichia coli, UniProt P0A6F5)", "sequence (P0A6F5 2-548 limits assumed)": "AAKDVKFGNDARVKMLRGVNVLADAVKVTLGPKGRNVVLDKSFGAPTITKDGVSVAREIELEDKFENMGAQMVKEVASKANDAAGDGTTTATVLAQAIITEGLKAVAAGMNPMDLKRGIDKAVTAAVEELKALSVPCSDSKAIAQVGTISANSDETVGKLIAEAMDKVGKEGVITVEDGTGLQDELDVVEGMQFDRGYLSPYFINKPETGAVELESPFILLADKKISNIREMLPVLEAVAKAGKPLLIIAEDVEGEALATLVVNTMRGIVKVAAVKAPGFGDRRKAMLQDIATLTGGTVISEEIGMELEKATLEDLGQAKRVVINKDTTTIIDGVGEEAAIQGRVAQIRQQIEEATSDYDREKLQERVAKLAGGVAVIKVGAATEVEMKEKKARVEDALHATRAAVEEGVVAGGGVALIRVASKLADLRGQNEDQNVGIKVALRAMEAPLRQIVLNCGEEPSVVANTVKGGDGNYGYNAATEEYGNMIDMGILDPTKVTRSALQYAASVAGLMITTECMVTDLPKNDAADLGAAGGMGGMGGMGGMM", "assay": "Fluorescence polarization binding of fluorescein-labeled peptides to GroEL", "set-up": "purchased; host or cells: E. coli; species or system E. coli", "conditions": "peptide 1 nM, blank about 62", "source_text": "as §4, §5, §6\nThe same heat shock proteins and LPS preparations were used as in the Western-blotting, except DnaJ was not studied. Ras was used as a negative control protein. […]"}, "Hsp70": {"target": "Hsp70 (Homo sapiens, UniProt P0DMV8)", "sequence (P0DMV8 whole entry)": "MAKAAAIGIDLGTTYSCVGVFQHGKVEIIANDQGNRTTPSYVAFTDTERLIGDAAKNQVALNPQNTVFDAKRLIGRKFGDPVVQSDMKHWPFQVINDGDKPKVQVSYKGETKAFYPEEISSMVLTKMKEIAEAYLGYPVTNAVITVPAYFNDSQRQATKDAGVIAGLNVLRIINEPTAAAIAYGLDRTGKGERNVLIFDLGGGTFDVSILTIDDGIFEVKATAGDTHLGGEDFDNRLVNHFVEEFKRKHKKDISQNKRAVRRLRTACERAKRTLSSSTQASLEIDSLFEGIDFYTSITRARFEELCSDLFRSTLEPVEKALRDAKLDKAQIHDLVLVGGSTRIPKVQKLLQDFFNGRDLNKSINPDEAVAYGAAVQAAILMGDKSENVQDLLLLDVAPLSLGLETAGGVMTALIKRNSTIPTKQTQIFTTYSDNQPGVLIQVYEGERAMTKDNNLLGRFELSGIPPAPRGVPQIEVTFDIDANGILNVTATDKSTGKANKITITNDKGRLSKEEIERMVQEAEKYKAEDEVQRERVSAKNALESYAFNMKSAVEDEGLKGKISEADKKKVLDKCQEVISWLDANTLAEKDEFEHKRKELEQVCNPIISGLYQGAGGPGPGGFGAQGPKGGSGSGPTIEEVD", "assay": "Fluorescence polarization binding of fluorescein-labeled peptides to Hsp70", "set-up": "purchased; host or cells: E. coli", "conditions": "Hsp70 at both concentrations (4 μM and 2 μM); peptide 1 nM; blank about 62", "source_text": "as §1, §2, §3"}, "[4]": {"target": "T3, S. aureus DnaK 554-585 (D-E helix fragment) (Staphylococcus aureus, UniProt P45554)", "T3 sequence (P45554 554-585 limits assumed)": "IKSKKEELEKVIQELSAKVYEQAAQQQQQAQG", "assay": "Fluorescence polarization with S. aureus DnaK D-E helix fragment", "assay_type": "binding"}, "[5]": {"target": "blocked E. coli DnaK fragment aa591-615 (Escherichia coli, UniProt P0A6Y8)", "sequence (P0A6Y8 592-616 limits assumed)": "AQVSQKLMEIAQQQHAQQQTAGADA", "assay_type": "binding", "conditions": "PBS; qualitative"}, "GrpE": {"target": "T4, GrpE (Escherichia coli, UniProt P09372)", "T4 construct": "purchased; host or cells: E. coli", "T4 sequence (P09372 whole entry)": "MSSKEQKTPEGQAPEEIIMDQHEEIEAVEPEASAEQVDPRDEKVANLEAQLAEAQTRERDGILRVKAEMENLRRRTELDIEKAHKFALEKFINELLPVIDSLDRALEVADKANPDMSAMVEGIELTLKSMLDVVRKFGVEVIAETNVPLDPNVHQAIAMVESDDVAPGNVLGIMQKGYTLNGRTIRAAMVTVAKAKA", "assay": "Fluorescence polarization binding of fluorescein-labeled peptides to GrpE", "conditions": "GrpE at both concentrations (4 μM and 2 μM); peptide 1 nM; blank about 62", "source_text": "as §1, §2, §3"}},
  "note": "Residues, ends and D or L forms follow the SMILES beside them. *: point of attachment. 5FAM = O=C1OC2(c3ccc(O)cc3Oc3cc(O)ccc32)c2ccc(C(=O)*)cc21",
  "data": [
    {"smiles": "CC[C@H](C)[C@H](NC(=O)[C@@H]1CCCN1C(=O)[C@H](CCCNC(=N)N)NC(=O)[C@@H]1CCCN1C(=O)[C@@H]1CCCN1C(=O)[C@@H](NC(=O)[C@@H]1CCCN1C(=O)[C@H](CCCNC(=N)N)NC(=O)[C@@H]1CCCN1C(=O)[C@H](CC(C)C)NC(=O)[C@H](Cc1ccc(O)cc1)NC(=O)[C@H](CO)NC(=O)CNC(=O)[C@H](CCCCN)NC(=O)[C@H](CC(=O)O)NC(=O)[C@@H](NC(=O)[C@H](CCCCN)NC(=O)c1ccc2c(c1)C(=O)OC21c2ccc(O)cc2Oc2cc(O)ccc21)C(C)C)[C@@H](C)O)C(=O)N[C@@H](Cc1ccc(O)cc1)C(=O)N[C@@H](CC(N)=O)C(=O)N[C@@H](CCCNC(=N)N)C(=O)N[C@@H](CC(N)=O)C(=O)O", "note": "[N—F-pyrrhocoricin] (5FAM-KVDKGSYLPRPTPPRPIYNRN-OH; C-terminus assumed)", "values": [
      {"measurement": "minipolarization value", "setting": "Ras", "value": "under 62"},
      {"measurement": "binding to E. coli D-E helix hinge region aa583-615", "setting": "[1]", "value": "concentration-dependent binding"},
      {"measurement": "millipolarization values higher over the background", "setting": "DnaK; 1 nM peptide bound to DnaK", "value": 50, "unit": "%"},
      {"measurement": "minipolarization value", "setting": "DnaK; 2 μM DnaK", "value": "about 95"},
      {"measurement": "minipolarization value", "setting": "DnaK; 4 μM DnaK", "value": "about 100"},
      {"measurement": "minipolarization value", "setting": "Hsp60; 2 μM Hsp60", "value": "about 62"},
      {"measurement": "minipolarization value", "setting": "Hsp60; 4 μM Hsp60", "value": "about 90"},
      {"measurement": "binding to fragment aa397-439", "setting": "[2]", "value": "weakly"},
      {"measurement": "minipolarization value", "setting": "GroES", "value": "under 62"},
      {"measurement": "binding to E. coli A-B helix fragment", "setting": "[3]; PBS, qualitative", "value": "No interaction above the level of the negative control"},
      {"measurement": "binding to E. coli A-B helix fragment", "setting": "[3]; Tris HCl at pH 8.0", "value": "did not bind"},
      {"measurement": "binding to E. coli extreme C-terminus fragment", "setting": "E. coli DnaK aa596-637", "value": "No interaction above the level of the negative control"},
      {"measurement": "minipolarization value", "setting": "GroEL; 2 μM Gro EL", "value": "about 85"},
      {"measurement": "minipolarization value", "setting": "GroEL; 4 μM Gro EL", "value": "over 100"},
      {"measurement": "minipolarization value", "setting": "Hsp70", "value": "under 62"},
      {"measurement": "binding to D-E helix fragment of S. aureus DnaK", "setting": "[4]; PBS, qualitative", "value": "No interaction above the level of the negative control"},
      {"measurement": "binding to S. aureus D-E helix fragment", "setting": "[4]; Tris HCl at pH 8.0", "value": "did not bind"},
      {"measurement": "binding to blocked E. coli DnaK fragment aa591-615", "setting": "[5]", "value": "bound strongly"},
      {"measurement": "minipolarization value", "setting": "GrpE", "value": "under 62"}
    ]}
  ]
}
